Legend:
[1] = target: T1, N6-adenosine-methyltransferase catalytic subunit (Homo sapiens, UniProt Q86U44); assay: Inhibition of METTL3 (unknown origin) using 3' biotinylated RNA (UCUGGACUAAA) and 3H-SAM as a substrate preincubated for 5 mins followed by substrate addition incubated for 30 mins by scintillation counting method
[2] = target: T1, N6-adenosine-methyltransferase catalytic subunit; assay: Inhibition of METTL3-mediated m6A methylation in human […] cells assessed as reduction in mRNA level measured after 24 hrs by LC-MS/MS analysis; assay type: cell-based, MOLM-13

T1 sequence (Q86U44 whole entry): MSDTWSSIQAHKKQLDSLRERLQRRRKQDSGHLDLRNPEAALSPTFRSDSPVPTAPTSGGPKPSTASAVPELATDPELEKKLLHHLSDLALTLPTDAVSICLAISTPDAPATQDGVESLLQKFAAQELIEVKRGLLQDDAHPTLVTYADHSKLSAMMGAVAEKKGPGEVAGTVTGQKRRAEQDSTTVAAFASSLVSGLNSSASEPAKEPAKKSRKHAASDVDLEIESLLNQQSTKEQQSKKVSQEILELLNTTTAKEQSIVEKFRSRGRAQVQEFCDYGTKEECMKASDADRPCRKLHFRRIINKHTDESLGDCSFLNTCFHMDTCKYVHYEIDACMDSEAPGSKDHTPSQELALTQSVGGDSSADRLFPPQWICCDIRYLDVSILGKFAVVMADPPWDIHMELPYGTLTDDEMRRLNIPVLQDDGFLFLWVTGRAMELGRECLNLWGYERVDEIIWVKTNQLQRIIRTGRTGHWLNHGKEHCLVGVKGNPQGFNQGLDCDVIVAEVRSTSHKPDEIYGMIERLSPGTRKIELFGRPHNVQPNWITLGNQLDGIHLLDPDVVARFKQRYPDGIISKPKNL

| SMILES | IC50 [1] | IC50 [2] |
| --- | --- | --- |
| Nc1ncnc2c1c([C@@H]1CCCO1)cn2[C@@H]1O[C@H](COc2ccc3ccc(N4CCC4)nc3c2)[C@@H](O)[C@@H]1F | < 10 nM | < 1000 nM |
| CNc1ccc2ccc(OC[C@H]3O[C@@H](n4cc(-c5ccn(C)n5)c5c(N)ncnc54)[C@H](O)[C@@H]3O)cc2n1 | < 10 nM | < 1000 nM |
| Cc1coc(-c2cn([C@@H]3O[C@H](COc4ccc5ccc(N6CCC6)nc5c4)[C@@H](O)[C@@H]3F)c3ncnc(N)c23)n1 | < 10 nM | < 1000 nM |
| CNc1ccc2ccc(OC[C@H]3O[C@@H](n4cc(-c5ccc(C)o5)c5c(N)ncnc54)[C@@H](F)[C@@H]3O)cc2n1 | < 10 nM | < 1000 nM |
| Nc1ncnc2c1c(-n1cccn1)cn2[C@@H]1O[C@H](COc2ccc3ccc(N4CCC4)nc3c2)[C@@H](O)[C@@H]1F | < 10 nM | < 1000 nM |
| CCNc1ccc2ccc(OC[C@H]3O[C@@H](n4cc(C5CCCC5)c5c(N)ncnc54)[C@H](O)[C@@H]3O)cc2n1 | < 10 nM | < 1000 nM |
